Results: ChEMBL document CHEMBL1201862, “PubChem BioAssay data set” (2004)
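Growth conditions: 96-well plates. Treatment: test compound, 48 hours, 5 concentrations. Analysis: linear interpolation between bracketing concentrations; unreached endpoints set to highest concentration. Here, GI50 denotes the concentration required for 50% inhibition of growth.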 Calls of active or inactive are those of the source. No stated cut-off is given here; in the data, active = GI50 up to about 1.1 µM and inactive = higher.

How the values were obtained:
Assay in all cases: growth of human tumour cells (NCI), 48 h
A498 = test system: A498
ACHN = test system: ACHN
DU-145 = test system: DU-145
HL-60 = test system: HL-60
HOP-92 = test system: HOP-92
HT-29 = test system: HT-29
KM12 = test system: KM12
MOLT-4 = test system: MOLT-4
NCI/ADR-RES = test system: NCI/ADR-RES
OVCAR-3 = test system: OVCAR-3
OVCAR-4 = test system: OVCAR-4
RXF 393 = test system: RXF 393
SF-268 = test system: SF-268
SK-MEL-5 = test system: SK-MEL-5
SNB-75 = test system: SNB-75
SW-620 = test system: SW-620
T47D = test system: T47D
TK-10 = test system: TK-10
U-251 = test system: U-251
UO-31 = test system: UO-31

SMILES	GI50 (A498)	GI50 (ACHN)	GI50 (DU-145)	GI50 (HL-60)	GI50 (HOP-92)	GI50 (HT-29)	GI50 (KM12)	GI50 (MOLT-4)	GI50 (NCI/ADR-RES)	GI50 (OVCAR-3)	GI50 (OVCAR-4)	GI50 (RXF 393)	GI50 (SF-268)	GI50 (SK-MEL-5)	GI50 (SNB-75)	GI50 (SW-620)	GI50 (T47D)	GI50 (TK-10)	GI50 (U-251)	GI50 (UO-31)
C1CSCCSCCSCCSCCS1	> 100 µM (inactive)	> 100 µM (inactive)	> 100 µM (inactive)	> 100 µM (inactive)	> 100 µM (inactive)	> 100 µM (inactive)	> 100 µM (inactive)	> 100 µM (inactive)	> 100 µM (inactive)	> 100 µM (inactive)	> 100 µM (inactive)	> 100 µM (inactive)	> 100 µM (inactive)	> 100 µM (inactive)	> 100 µM (inactive)	> 100 µM (inactive)	> 100 µM (inactive)	> 100 µM (inactive)	> 100 µM (inactive)	> 100 µM (inactive)
C[C@]12CC[C@@H]3c4ccc(O)cc4CC[C@H]3[C@@H]1C/C(=C\c1ccncc1)[C@@H]2O	5.78 µM (inactive)	11.2 µM (inactive)	19.1 µM (inactive)	8.51 µM (inactive)	5.32 µM (inactive)	15.1 µM (inactive)	5.98 µM (inactive)	3.6 µM (inactive)	5.56 µM (inactive)	11.5 µM (inactive)	14.8 µM (inactive)	2.5 µM (inactive)	8.55 µM (inactive)	4.18 µM (inactive)	2.98 µM (inactive)	9.27 µM (inactive)	3.55 µM (inactive)	22.9 µM (inactive)	11.8 µM (inactive)	21.5 µM (inactive)
O=C(O)C1=NN(c2ccc(S(=O)(=O)O)cc2)C2(C1)C(Cl)C(=O)N2c1nc2ccccc2s1 (stereo not given)	19.1 µM (inactive)	17 µM (inactive)	19.1 µM (inactive)	16.2 µM (inactive)	20.5 µM (inactive)	17.8 µM (inactive)	14.9 µM (inactive)	15.3 µM (inactive)	23.9 µM (inactive)	12.8 µM (inactive)	16.4 µM (inactive)	16.1 µM (inactive)	17.9 µM (inactive)	12.8 µM (inactive)	13.5 µM (inactive)	2.68 µM (inactive)	20.5 µM (inactive)	18 µM (inactive)	15.8 µM (inactive)	8.3 µM (inactive)
Cc1ccc(S(=O)(=O)n2ccn3c(=O)cc(C)nc23)cc1	> 10 µM (inactive)	> 10 µM (inactive)	> 10 µM (inactive)	> 10 µM (inactive)	> 10 µM (inactive)	> 10 µM (inactive)	> 10 µM (inactive)	> 10 µM (inactive)	> 10 µM (inactive)	> 10 µM (inactive)	> 10 µM (inactive)	> 10 µM (inactive)	> 10 µM (inactive)	> 10 µM (inactive)	> 10 µM (inactive)	> 10 µM (inactive)	> 10 µM (inactive)	> 10 µM (inactive)	> 10 µM (inactive)	> 10 µM (inactive)
CC(=O)Nc1ccc(Cc2ccc3nc(O)cc(C)c3c2)cc1	> 100 µM (inactive)	50.8 µM (inactive)	32.5 µM (inactive)	> 100 µM (inactive)	> 100 µM (inactive)	50.6 µM (inactive)	> 100 µM (inactive)	> 100 µM (inactive)	> 100 µM (inactive)	> 100 µM (inactive)	> 100 µM (inactive)	35.5 µM (inactive)	> 100 µM (inactive)	> 100 µM (inactive)	10.3 µM (inactive)	> 100 µM (inactive)	55.3 µM (inactive)	40.5 µM (inactive)	30.1 µM (inactive)	> 100 µM (inactive)
O=[N+]([O-])c1ccc(Cl)cc1/C=N/C12CC3CC(CC(C3)C1)C2	> 100 µM (inactive)	> 87.9 µM (inactive)	> 100 µM (inactive)	5.77 µM (inactive)	79.1 µM (inactive)	30.6 µM (inactive)	29 µM (inactive)	18.5 µM (inactive)	30.1 µM (inactive)	46.9 µM (inactive)	63.5 µM (inactive)	53.1 µM (inactive)	50.2 µM (inactive)	56.6 µM (inactive)	> 68.1 µM (inactive)	22 µM (inactive)	37.4 µM (inactive)	> 100 µM (inactive)	33.2 µM (inactive)	76.7 µM (inactive)
Nc1ncnc2c1ccn2C/C=C\CO	> 100 µM (inactive)	> 100 µM (inactive)	> 100 µM (inactive)	> 100 µM (inactive)	> 100 µM (inactive)	> 100 µM (inactive)	> 100 µM (inactive)	85.9 µM (inactive)	> 100 µM (inactive)	> 100 µM (inactive)	> 100 µM (inactive)	> 100 µM (inactive)	> 100 µM (inactive)	> 100 µM (inactive)	> 100 µM (inactive)	> 100 µM (inactive)	> 100 µM (inactive)	> 100 µM (inactive)	> 100 µM (inactive)	> 100 µM (inactive)
CC(=O)NNc1nc(-c2ccc([N+](=O)[O-])cc2)c(C#N)c(=O)n1C	25.5 µM (inactive)	> 100 µM (inactive)	34.2 µM (inactive)	25.9 µM (inactive)	13.5 µM (inactive)	99.3 µM (inactive)	54.1 µM (inactive)	36.8 µM (inactive)	> 100 µM (inactive)	15.3 µM (inactive)	20.1 µM (inactive)	57 µM (inactive)	33.1 µM (inactive)	> 100 µM (inactive)	18.9 µM (inactive)	33.4 µM (inactive)	> 100 µM (inactive)	24 µM (inactive)	20.8 µM (inactive)	37.6 µM (inactive)
CCCn1c2c(c3ccccc3c1=O)C(=O)c1ccccc1-2	> 48.4 µM (inactive)	53.6 µM (inactive)	> 48.2 µM (inactive)	1.78 µM (inactive)	> 57.4 µM (inactive)	> 29.8 µM (inactive)	20.7 µM (inactive)	3.61 µM (inactive)	> 100 µM (inactive)	> 100 µM (inactive)	> 100 µM (inactive)	82.4 µM (inactive)	> 73.1 µM (inactive)	11.2 µM (inactive)	> 48.8 µM (inactive)	> 53.5 µM (inactive)	> 54.1 µM (inactive)	61.8 µM (inactive)	> 61.8 µM (inactive)	> 19.7 µM (inactive)
Cc1ccc(S(=O)(=O)n2c3c(c4ccccc42)CCN2CCC(Br)C[C@@H]32)cc1 (stereo not given in full)	22.6 µM (inactive)	17 µM (inactive)	15.1 µM (inactive)	5.12 µM (inactive)	18.1 µM (inactive)	13.3 µM (inactive)	8.81 µM (inactive)	9.73 µM (inactive)	16.2 µM (inactive)	11.1 µM (inactive)	13.1 µM (inactive)	12.9 µM (inactive)	16.1 µM (inactive)	7.74 µM (inactive)	12.2 µM (inactive)	12.8 µM (inactive)	6.11 µM (inactive)	15.6 µM (inactive)	12.4 µM (inactive)	11.9 µM (inactive)
Nc1nc(Sc2ccc([N+](=O)[O-])c3nonc23)c2nc[nH]c2n1	13.7 µM (inactive)	2.22 µM (inactive)	0.705 µM (active)	1.71 µM (inactive)	2.56 µM (inactive)	1.59 µM (inactive)	3.21 µM (inactive)	0.301 µM (active)	0.495 µM (active)	0.624 µM (active)	1.14 µM (inactive)	1.36 µM (inactive)	0.681 µM (active)	2.15 µM (inactive)	3.31 µM (inactive)	1.01 µM (active)	1.2 µM (inactive)	0.687 µM (active)	5.86 µM (inactive)	0.716 µM (active)
O=C(/C=C/c1ccccc1)Oc1cccc(Br)c1	61.8 µM (inactive)	> 100 µM (inactive)	89.9 µM (inactive)	18.1 µM (inactive)	91 µM (inactive)	30.5 µM (inactive)	31.8 µM (inactive)	11.6 µM (inactive)	60.1 µM (inactive)	78.2 µM (inactive)	93.8 µM (inactive)	56.8 µM (inactive)	24.3 µM (inactive)	55.3 µM (inactive)	45.3 µM (inactive)	44.2 µM (inactive)	53.3 µM (inactive)	> 100 µM (inactive)	29.5 µM (inactive)	52.8 µM (inactive)
CC12CCC(C(Br)(Br)C1=O)C2(C)C (stereo not given)	3.68 µM (inactive)	0.553 µM (active)	6.08 µM (inactive)	< 0.0148 µM (active)	0.617 µM (active)	0.228 µM (active)	2.77 µM (inactive)	0.091 µM (active)	0.131 µM (active)	0.507 µM (active)	0.333 µM (active)	0.183 µM (active)	0.0989 µM (active)	0.348 µM (active)	0.711 µM (active)	< 0.0476 µM (active)	0.0467 µM (active)	2.09 µM (inactive)	< 0.0469 µM (active)	0.48 µM (active)
O=C(O)c1nn(-c2ccccc2-c2nnc(O)nc2O)c(=O)[nH]c1=O	> 100 µM (inactive)	> 100 µM (inactive)	> 100 µM (inactive)	30.5 µM (inactive)	> 100 µM (inactive)	> 100 µM (inactive)	> 100 µM (inactive)	4.73 µM (inactive)	> 100 µM (inactive)	> 100 µM (inactive)	> 100 µM (inactive)	> 100 µM (inactive)	> 100 µM (inactive)	> 100 µM (inactive)	> 100 µM (inactive)	> 100 µM (inactive)	> 100 µM (inactive)	> 100 µM (inactive)	> 100 µM (inactive)	> 100 µM (inactive)
